Data: patent US12172983B2, “EGFR inhibitors” (Blueprint Medicines Corporation, priority 2019, dated 2024)
Like-named read-outs stand apart in the source and are kept apart here.

Key:
[1] = system: phosphorylation of EGFR (Tyr1068) in NCI-H1975 cell line that harbors the EGFR L858R T790M mutations; experiment: NCI-H1975 pEGFR AlphaLISA assay; type: cell-based; details: 4-5 hours incubation, read-out: Ext pEGFR H1975
Procedure, shortened: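 NCI-H1975 cells (EGFR L858R/T790M) seeded overnight, then treated with compound for 4-5 h at 37 °C/5% CO2. After lysis, p-EGFR (Tyr1068) quantified by AlphaLISA SureFire Ultra with acceptor then donor beads; IC50 fitted from percent inhibition versus log concentration.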

EGFR (L858R T790M C797S) = target: T1, EGFR (L858R T790M C797S) (Homo sapiens, UniProt P00533, C797S/L858R/T790M); experiment: Biochemical EGFR inhibition assay (Caliper mobility shift), EGFR LRTMCS mutant; details: inhibitory activity against EGFR LRTMCS mutant; apparent IC50; read-out: Ext Enz LRTMCS
T1 construct: purchased SignalChem E10-122VG
Procedure, shortened: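 Kinase reactions at 25 °C run to 10–20% peptide phosphorylation, stopped with 35 mM EDTA. Phosphorylated product and substrate separated electrophoretically by mobility shift. Apparent IC50 from percent activity versus log compound concentration.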

[2] = Homo sapiens, NCI-H1975, inhibition of phosphorylation of mutant EGFR in NCI-H1975 cells
[3] = inhibition of phosphorylation of mutant EGFR in NCI-H1975 cells

| IC50 [1, 2] | IC50 (EGFR (L858R T790M C797S)) | IC50 [1, 3] | Compound |
| --- | --- | --- | --- |
| 0.0201 to 0.03 µM | 0.0151 to 0.02 µM |  | CCOc1ccc(N2CC(CS(=O)(=O)CC)C2)c2cnc(Nc3ccnc(N4CC[C@@H](O)[C@@](C)(F)C4)n3)cc12 (single isomer, unassigned) [Compound 145] |
|  | ≤ 0.015 µM | 0.0101 to 0.02 µM | CC(C)c1ccc(N2C[C@H](CS(C)(=O)=O)[C@H]2C)c2cnc(Nc3ccnc(N4CC[C@](C)(O)[C@H](O)C4)n3)cc12 (single isomer, unassigned) [Compound 101, (4R)-1-[4-({8-[(2R,3S)-3-(methanesulfonylmethyl)-2-methylazetidin-1-yl]-5-(propan-2-yl)isoquinolin-3-yl}amino)pyrimidin-2-yl]-4-methylpiperidine-3,4-diol or (3S,4R)-1-[4-({8-[(2R,3S)-3-(methanesulfonylmethyl)-2-methylazetidin-1-yl]-5-(propan-2-yl)isoquinolin-3-yl}amino)pyrimidin-2-yl]-4-methylpiperidine-3,4-diol] |
| ≤ 0.01 µM | ≤ 0.015 µM |  | CCS(=O)(=O)C[C@H]1CN(c2ccc(C(C)C)c3cc(Nc4cnnc(N5CC[C@H](OC)[C@H](F)C5)n4)ncc23)[C@@H]1C [Compound 289, 8-[(2R,3S)-3-[(ethanesulfonyl)methyl]-2-methylazetidin-1-yl]-N-{3-[(3R,4S)-3-fluoro-4-methoxypiperidin-1-yl]-1,2,4-triazin-5-yl}-5-(propan-2-yl)isoquinolin-3-amine] |
| 0.0301 to 0.05 µM | 0.0151 to 0.02 µM |  | CC(C)c1ccc(N2CC(CS(C)(=O)=O)C2)c2cnc(Nc3ccnc(N4CCOCC4)n3)cc12 [Compound 1, 8-[3-(methanesulfonylmethyl)azetidin-1-yl]-N-[2-(morpholin-4-yl)pyrimidin-4-yl]-5-(propan-2-yl)isoquinolin-3-amine] |
| ≤ 0.01 µM | ≤ 0.015 µM |  | CCS(=O)(=O)CC1CN(c2ccc(C(C)C)c3cc(Nc4cnnc(N5CC[C@@H](OC)[C@@H](F)C5)n4)ncc23)C1 [Compound 280, 8-{3-[(ethanesulfonyl)methyl]azetidin-1-yl}-N-{3-[(3S,4R)-3-fluoro-4-methoxypiperidin-1-yl]-1,2,4-triazin-5-yl}-5-(propan-2-yl)isoquinolin-3-amine] |
| 0.0301 to 0.05 µM | ≤ 0.015 µM |  | COC1CCN(c2nccc(Nc3cc4c(C(C)C)ccc(N5CC(CS(C)(=N)=O)C5)c4cn3)n2)CC1 (single isomer, unassigned) [Compound 15, (S)-imino((1-(5-isopropyl-3-((2-(4-methoxypiperidin-1-yl)pyrimidin-4-yl)amino)isoquinolin-8-yl)azetidin-3-yl)methyl)(methyl)-λ^6-sulfanone or (R)-imino((1-(5-isopropyl-3-((2-(4-methoxypiperidin-1-yl)pyrimidin-4-yl)amino)isoquinolin-8-yl)azetidin-3-yl)methyl)(methyl)-λ^6-sulfanone] |
| ≤ 0.01 µM | ≤ 0.015 µM |  | CCS(=O)(=O)C[C@H]1CN(c2cnc(C(C)C)c3cc(Nc4ccnc(N5CC[C@@](C)(O)[C@@H](F)C5)n4)ncc23)[C@@H]1C (single isomer, unassigned) [Compound 194] |
| ≤ 0.01 µM | ≤ 0.015 µM |  | CCS(=O)(=O)CC1CN(c2ccc(C(C)C)c3cc(Nc4ccnc(N5C[C@@H](F)[C@@H](O)C(C)(C)C5)n4)ncc23)C1 (single isomer, unassigned) [Compound 182, (4S,5R)-1-{4-[(8-{3-[(ethanesulfonyl)methyl]azetidin-1-yl}-5-(propan-2-yl)isoquinolin-3-yl)amino]pyrimidin-2-yl}-5-fluoro-3,3-dimethylpiperidin-4-ol or (4R,5S)-1-{4-[(8-{3-[(ethanesulfonyl)methyl]azetidin-1-yl}-5-(propan-2-yl)isoquinolin-3-yl)amino]pyrimidin-2-yl}-5-fluoro-3,3-dimethylpiperidin-4-ol] |
|  | ≤ 0.015 µM | 0.0101 to 0.02 µM | CC(C)c1cnc(N2CC(CS(C)(=O)=O)C2)c2cnc(Nc3ccnc(N4C[C@H](F)[C@@H](F)C4)n3)cc12 (single isomer, unassigned) [Compound 9, N-{2-[(3R,4R)-3,4-difluoropyrrolidin-1-yl]pyrimidin-4-yl}-8-[3-(methanesulfonylmethyl)azetidin-1-yl]-5-(propan-2-yl)-2,7-naphthyridin-3-amine or N-{2-[(3S,4S)-3,4-difluoropyrrolidin-1-yl]pyrimidin-4-yl}-8-[3-(methanesulfonylmethyl)azetidin-1-yl]-5-(propan-2-yl)-2,7-naphthyridin-3-amine] |

Continued, compound first:

| Compound | IC50 [1, 2] | IC50 (EGFR (L858R T790M C797S)) | IC50 [1, 3] |
| --- | --- | --- | --- |
| CCS(=O)(=O)C[C@H]1CN(c2ccc(C(C)C)c3cc(Nc4ccnc(N5CC[C@@H](OCCO)C(F)(F)C5)n4)ncc23)[C@@H]1C (single isomer, unassigned) [Compound 302, 2-{[(4R)-1-[4-({8-[(2R,3S)-3-[(ethanesulfonyl)methyl]-2-methylazetidin-1-yl]-5-(propan-2-yl)isoquinolin-3-yl}amino)pyrimidin-2-yl]-3,3-difluoropiperidin-4-yl]oxy}ethan-1-ol or 2-{[(4S)-1-[4-({8-[(2R,3S)-3-[(ethanesulfonyl)methyl]-2-methylazetidin-1-yl]-5-(propan-2-yl)isoquinolin-3-yl}amino)pyrimidin-2-yl]-3,3-difluoropiperidin-4-yl]oxy}ethan-1-ol] | ≤ 0.01 µM | 0.0151 to 0.02 µM |  |
| CO[C@@H]1[C@H](O)CN(c2nccc(Nc3cc4c(C(C)C)cnc(N5C[C@H](CS(C)(=O)=O)[C@H]5C)c4cn3)n2)CC1(F)F (single isomer, unassigned) [Compound 235, (3R,4R)-5,5-difluoro-1-[4-({8-[(2R,3S)-3-(methanesulfonylmethyl)-2-methylazetidin-1-yl]-5-(propan-2-yl)-2,7-naphthyridin-3-yl}amino)pyrimidin-2-yl]-4-methoxypiperidin-3-ol or (3S,4S)-5,5-difluoro-1-[4-({8-[(2R,3S)-3-(methanesulfonylmethyl)-2-methylazetidin-1-yl]-5-(propan-2-yl)-2,7-naphthyridin-3-yl}amino)pyrimidin-2-yl]-4-methoxypiperidin-3-ol] | ≤ 0.01 µM | ≤ 0.015 µM |  |
| CO[C@@H]1CCN(c2nccc(Nc3cc4c(C(C)C)ccc(N5CC(CS(C)(=O)=O)C5)c4cn3)n2)CC1(F)F (single isomer, unassigned) [Compound 159] | 0.0201 to 0.03 µM | 0.0151 to 0.02 µM |  |
| CC(C)c1ccc(N2CC(CS(C)(=O)=O)C2)c2cnc(Nc3ccnc(N4CC(C)(C)[C@H](O)C(F)(F)C4)n3)cc12 (single isomer, unassigned) [Compound 213, (4S)-3,3-difluoro-1-[4-({8-[3-(methanesulfonylmethyl)azetidin-1-yl]-5-(propan-2-yl)isoquinolin-3-yl}amino)pyrimidin-2-yl]-5,5-dimethylpiperidin-4-ol or (4R)-3,3-difluoro-1-[4-({8-[3-(methanesulfonylmethyl)azetidin-1-yl]-5-(propan-2-yl)isoquinolin-3-yl}amino)pyrimidin-2-yl]-5,5-dimethylpiperidin-4-ol] | ≤ 0.01 µM | ≤ 0.015 µM |  |
| CCS(=O)(=O)CC1CN(c2ncc(C(C)C)c3cc(Nc4ccnc(N5CC[C@@H](O)[C@@](C)(F)C5)n4)ncc23)C1 (single isomer, unassigned) [Compound 124] | ≤ 0.01 µM | ≤ 0.015 µM |  |
| (R)-ethyl({1-[3-({2-[(3S,4R)-3-fluoro-4-methoxypiperidin-1-yl]pyrimidin-4-yl}amino)-5-(propan-2-yl)isoquinolin-8-yl]azetidin-3-yl}methyl)imino-λ^6-sulfanone or (S)-ethyl({1-[3-({2-[(3S,4R)-3-fluoro-4-methoxypiperidin-1-yl]pyrimidin-4-yl}amino)-5-(propan-2-yl)isoquinolin-8-yl]azetidin-3-yl}methyl)imino-λ^6-sulfanone [Compound 272] |  | ≤ 0.015 µM | ≤ 0.01 µM |
| CN(C)CCS(=O)(=O)CC1CN(c2cccc3cc(Nc4ccnc(N5C[C@@H](F)[C@@H](O)C(C)(C)C5)n4)ncc23)C1 (single isomer, unassigned) [Compound 192, (4S,5R)-1-(4-{[8-(3-{[2-(dimethylamino)ethanesulfonyl]methyl}azetidin-1-yl)isoquinolin-3-yl]amino}pyrimidin-2-yl)-5-fluoro-3,3-dimethylpiperidin-4-ol or (4R,5S)-1-(4-{[8-(3-{[2-(dimethylamino)ethanesulfonyl]methyl}azetidin-1-yl)isoquinolin-3-yl]amino}pyrimidin-2-yl)-5-fluoro-3,3-dimethylpiperidin-4-ol] | 0.0101 to 0.02 µM | ≤ 0.015 µM |  |
| (S)-ethyl({1-[3-({2-[(3S,4R)-3-fluoro-4-methoxypiperidin-1-yl]pyrimidin-4-yl}amino)-5-(propan-2-yl)isoquinolin-8-yl]azetidin-3-yl}methyl)imino-λ^6-sulfanone or (R)-ethyl({1-[3-({2-[(3S,4R)-3-fluoro-4-methoxypiperidin-1-yl]pyrimidin-4-yl}amino)-5-(propan-2-yl)isoquinolin-8-yl]azetidin-3-yl}methyl)imino-λ^6-sulfanone [Compound 273] |  | ≤ 0.015 µM | 0.0201 to 0.03 µM |
| CC(C)c1ccc(N2C[C@H](CS(C)(=O)=O)[C@H]2C)c2cnc(Nc3ccnc(N4CC[C@H](O)[C@H](F)C4)n3)cc12 [Compound 311, (3R,4S)-3-fluoro-1-[4-({8-[(2R,3S)-3-(methanesulfonylmethyl)-2-methylazetidin-1-yl]-5-(propan-2-yl)isoquinolin-3-yl}amino)pyrimidin-2-yl]piperidin-4-ol] | ≤ 0.01 µM | ≤ 0.015 µM |  |
